Results as given in patent US11685732B2, “MYST family histone acetyltransferase inhibitors” (Epizyme, Inc., priority 2017, dated 2023).
pIC50: −log10 of the molar value. Where two headings read alike, the source gives them in different places.

Columns and labels:
KAT-8 = KAT-8 (Homo sapiens (Human), UniProt Q9H7Z6); assay: KAT-8 biochemical inhibition assay (SAMDI mass spectrometry)
Description: (§1) KAT-8. Enzyme assay buffer was 50 mM Tris pH 8.0, 0.002% Tween20, 0.005% bovine skin gelatin, and 1 mM dithiothreitol (DTT). For determination of IC50 values, compounds were serially diluted with 2% (v/v) DMSO in the final reaction, pre-incubating each dilution of each compound with 40 μL of assay buffer containing KAT-8 enzyme (12.5 nM final concentration). 10 μL of assay buffer containing 1 μM peptide substrate and 5 μM acetyl coenzyme A (final concentrations) was added. Reactions (50 μL total) were then carried out at 25° C. for 90 minutes. Reactions were terminated by the addition of 0.5% formic acid (final concentration), and a sample of each reaction was analyzed by SAMDI Tech, Inc. (Chicago, Ill.) using self-assembled monolayer desorption/ionization time-of-flight mass spectrometry (Mrksich, M. (2008) Mass spectrometry of self-assembled monolayers: a new tool for molecular surface science. ACS Nano 2, 7-18).

KAT-7 = KAT-7 (Homo sapiens (Human), UniProt O95251); assay: KAT-7 biochemical inhibition assay (SAMDI mass spectrometry)
Chain of KAT-7 (O95251 other isoform, or with tags, fused parts or gaps): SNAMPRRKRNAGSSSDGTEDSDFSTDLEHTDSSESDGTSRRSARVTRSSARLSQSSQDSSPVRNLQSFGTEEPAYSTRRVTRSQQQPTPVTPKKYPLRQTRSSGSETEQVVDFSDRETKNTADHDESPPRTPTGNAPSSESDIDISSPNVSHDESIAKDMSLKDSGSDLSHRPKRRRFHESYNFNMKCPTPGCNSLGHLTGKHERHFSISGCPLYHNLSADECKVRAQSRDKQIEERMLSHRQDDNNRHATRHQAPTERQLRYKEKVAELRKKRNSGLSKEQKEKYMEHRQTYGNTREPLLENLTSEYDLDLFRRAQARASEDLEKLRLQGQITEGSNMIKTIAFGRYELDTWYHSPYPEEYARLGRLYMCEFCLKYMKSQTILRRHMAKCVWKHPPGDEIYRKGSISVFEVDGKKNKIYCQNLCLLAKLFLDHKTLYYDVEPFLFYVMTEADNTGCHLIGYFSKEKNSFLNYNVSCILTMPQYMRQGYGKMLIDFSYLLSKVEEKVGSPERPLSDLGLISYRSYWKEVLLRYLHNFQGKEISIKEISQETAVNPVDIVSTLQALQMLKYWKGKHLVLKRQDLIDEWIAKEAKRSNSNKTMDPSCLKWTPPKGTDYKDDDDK
Description: as §1, with “KAT-7. Enzyme” for “KAT-8. Enzyme”, “containing KAT-7” for “containing KAT-8”, “enzyme (6” for “enzyme (12.5”, “and 2” for “and 5”, “for 120” for “for 90”

KAT-5 = KAT-5 (Homo sapiens (Human), UniProt Q92993); assay: KAT-5 biochemical inhibition assay (SAMDI mass spectrometry)
Chain of KAT-5 (Q92993 other isoform, or with tags, fused parts or gaps): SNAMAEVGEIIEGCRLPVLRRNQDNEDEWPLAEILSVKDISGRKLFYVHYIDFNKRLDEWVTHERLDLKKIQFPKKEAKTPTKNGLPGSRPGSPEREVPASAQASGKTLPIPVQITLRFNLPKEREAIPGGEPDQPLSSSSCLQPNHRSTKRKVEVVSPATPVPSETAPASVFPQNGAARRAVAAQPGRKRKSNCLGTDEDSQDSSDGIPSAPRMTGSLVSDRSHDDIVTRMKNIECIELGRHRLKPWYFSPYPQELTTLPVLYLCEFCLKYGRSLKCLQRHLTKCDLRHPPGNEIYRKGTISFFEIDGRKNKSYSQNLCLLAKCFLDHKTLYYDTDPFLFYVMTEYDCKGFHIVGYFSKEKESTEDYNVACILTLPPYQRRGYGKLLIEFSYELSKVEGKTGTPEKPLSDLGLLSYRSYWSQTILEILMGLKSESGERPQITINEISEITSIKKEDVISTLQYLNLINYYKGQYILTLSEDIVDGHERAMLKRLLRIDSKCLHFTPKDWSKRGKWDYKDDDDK
Procedure, shortened: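 Acetylation of 1 μM peptide by 9 nM enzyme with 0.5 μM acetyl-CoA (final) was run 90 min at 25° C in Tris pH 8.0 buffer with DTT, after compound preincubation at 2% DMSO. Formic acid stopped the reaction, and product was quantified by SAMDI mass spectrometry to derive IC50.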

KAT-6A = KAT-6A (Homo sapiens (Human), UniProt Q92794); assay: KAT-6A biochemical inhibition assay (SAMDI mass spectrometry)
Chain of KAT-6A (Q92794 other isoform, or with tags, fused parts or gaps): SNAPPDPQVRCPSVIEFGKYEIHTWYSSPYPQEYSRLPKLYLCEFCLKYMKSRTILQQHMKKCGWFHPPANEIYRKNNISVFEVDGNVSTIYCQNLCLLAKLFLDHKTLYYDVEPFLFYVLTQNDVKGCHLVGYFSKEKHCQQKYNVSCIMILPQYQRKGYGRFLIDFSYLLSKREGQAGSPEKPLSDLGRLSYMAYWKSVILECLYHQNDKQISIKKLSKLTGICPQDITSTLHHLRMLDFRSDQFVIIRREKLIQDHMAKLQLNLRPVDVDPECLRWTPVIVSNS
Procedure, shortened: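 IC50 values came from SAMDI time-of-flight mass spectrometry after formic acid quench (0.5% final). Acetylation ran 90 min at 25 °C with 1 μM acetyl coenzyme A and 1 μM peptide substrate, following compound pre-incubation with 12.5 nM KAT-6A in Tris buffer pH 8.0 containing DTT, 2% DMSO final.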

Chain of KAT-8 (Q9H7Z6 other isoform, or with tags, fused parts or gaps): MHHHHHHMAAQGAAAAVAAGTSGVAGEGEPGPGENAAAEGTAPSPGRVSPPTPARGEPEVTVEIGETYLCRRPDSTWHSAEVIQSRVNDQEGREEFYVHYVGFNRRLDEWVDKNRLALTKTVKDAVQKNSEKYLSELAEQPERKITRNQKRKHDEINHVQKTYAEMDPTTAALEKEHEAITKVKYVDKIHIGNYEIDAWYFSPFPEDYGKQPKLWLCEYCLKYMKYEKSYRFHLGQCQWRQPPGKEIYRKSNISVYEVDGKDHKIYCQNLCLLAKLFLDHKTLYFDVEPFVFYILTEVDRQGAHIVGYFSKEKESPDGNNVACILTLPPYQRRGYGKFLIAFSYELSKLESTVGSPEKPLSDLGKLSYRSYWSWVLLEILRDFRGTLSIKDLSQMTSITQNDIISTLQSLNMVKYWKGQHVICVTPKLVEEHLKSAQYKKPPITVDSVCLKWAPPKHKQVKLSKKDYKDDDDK

| SMILES | pIC50 (KAT-8) | pIC50 (KAT-7) | pIC50 (KAT-5) | pIC50 (KAT-6A) | pIC50 (KAT-8; Table 6, comparative compounds) | pIC50 (KAT-7; Table 6, comparative compounds) | pIC50 (KAT-5; Table 6, comparative compounds) | pIC50 (KAT-6A; Table 6, comparative compounds) |
| --- | --- | --- | --- | --- | --- | --- | --- | --- |
| CCCS(=O)(=O)N1CCC(CS(=O)(=O)NNC(=O)c2cc(-c3cn(C)cn3)cc(Cl)c2F)C1 (centres unmarked) [Compound I-85] | 4.30 to 5.00 | > 5.00 | > 5.00 | > 5.00 |  |  |  |  |
| Cn1cnc(-c2cc(Cl)c(F)c(C(=O)NNS(=O)(=O)c3cnn(C)c3)c2)c1 [Compound I-65] | < 4.00 | > 5.00 | 4.00 to 4.30 | 4.30 to 5.00 |  |  |  |  |
| Cc1cc(-c2ccccc2)cc(C(=O)NNS(=O)(=O)CC2CCCN(C(=O)OC(C)(C)C)C2)c1F (single isomer, unassigned) [C, reference compound] |  |  |  |  | < 4.00 | 4.30 to 5.00 | ≥ 5.00 | ≥ 5.00 |
| Cn1cnc(-c2cc(Cl)c(F)c(C(=O)NNS(=O)(=O)Cc3ccccc3)c2)c1 [Compound I-111] | 4.30 to 5.00 | > 5.00 | > 5.00 | > 5.00 |  |  |  |  |
| Cn1cnc(-c2cc(Cl)c(F)c(C(=O)NNS(=O)(=O)C3CCN(C(=O)OC(C)(C)C)CC3)c2)c1 [Compound I-3] | < 4.00 | > 5.00 | > 5.00 | > 5.00 |  |  |  |  |
| O=C(NNS(=O)(=O)CC1CCOCC1)c1cc(-c2cscn2)cc(Cl)c1F [Compound I-48] | < 4.00 | > 5.00 | > 5.00 | > 5.00 |  |  |  |  |
| CC(=O)N1CCC(CS(=O)(=O)NNC(=O)c2cc(-c3cn(C)cn3)cc(Cl)c2F)C1 (centres unmarked) [Compound I-57] | 4.30 to 5.00 | > 5.00 | 4.30 to 5.00 | 4.30 to 5.00 |  |  |  |  |
| Cc1cc(-c2cn(CCO)cn2)cc(C(=O)NNS(=O)(=O)CC2CCOCC2)c1F [Compound I-146] | < 4.00 | 4.30 to 5.00 | 4.30 to 5.00 | 4.30 to 5.00 |  |  |  |  |
| Cn1cnc(-c2cc(Cl)c(F)c(C(=O)NNS(=O)(=O)C[C@H]3C[C@@H](N)C3)c2)c1 [Compound I-113] | 4.30 to 5.00 | > 5.00 | 4.30 to 5.00 | 4.30 to 5.00 |  |  |  |  |
| Cc1ncn(-c2cc(Cl)c(F)c(C(=O)NNS(=O)(=O)C3CCOCC3)c2)n1 [Compound I-77] | 4.30 to 5.00 | 4.30 to 5.00 | 4.30 to 5.00 | 4.30 to 5.00 |  |  |  |  |
| COc1ccc(CNC(=O)N[C@H]2C[C@H](CS(=O)(=O)NNC(=O)c3cc(-c4cn(C)cn4)cc(Cl)c3F)C2)cc1 [Compound I-174] | 4.30 to 5.00 | > 5.00 | > 5.00 | > 5.00 |  |  |  |  |
| Cc1cc(-c2cn(C)cn2)cc(C(=O)NNS(=O)(=O)CC2CCCCC2)c1F [Compound I-129] | < 4.00 | > 5.00 | > 5.00 | > 5.00 |  |  |  |  |
| Cc1cc(-c2cn(C)cn2)cc(C(=O)NNS(=O)(=O)Cc2ccccc2)c1F [Compound I-128] | < 4.00 | > 5.00 | 4.30 to 5.00 | 4.30 to 5.00 |  |  |  |  |
| Cn1cc(-c2cc(Cl)c(F)c(C(=O)NNS(=O)(=O)CC3CCCCC3)c2)cn1 [Compound I-158] | < 4.00 | > 5.00 | > 5.00 | 4.30 to 5.00 |  |  |  |  |
| Cn1cnc(-c2cc(Cl)c(F)c(C(=O)NNS(=O)(=O)CC3CCCNC3)c2)c1 (centres unmarked) [Compound I-7] | < 4.00 | > 5.00 | 4.30 to 5.00 | 4.00 to 4.30 |  |  |  |  |
| O=C(NNS(=O)(=O)CC1CCOCC1)c1cc(-n2cccn2)cc(Cl)c1F [Compound I-41] | < 4.00 | 4.00 to 4.30 | 4.30 to 5.00 | > 5.00 |  |  |  |  |
| CNC(=O)N[C@H]1CC[C@H](CS(=O)(=O)NNC(=O)c2cc(-c3cn(C)cn3)cc(Cl)c2F)CC1 [Compound I-176] | 4.30 to 5.00 | > 5.00 | > 5.00 | > 5.00 |  |  |  |  |
| CNC(=O)N[C@H]1C[C@@H](CS(=O)(=O)NNC(=O)c2cc(-c3cn(C)cn3)cc(Cl)c2F)C1 [Compound I-186] | 4.30 to 5.00 | > 5.00 | > 5.00 | > 5.00 |  |  |  |  |
| CN(C)C(=O)N[C@H]1CC[C@@H](CS(=O)(=O)NNC(=O)c2cc(-c3cn(C)cn3)cc(Cl)c2F)CC1 [Compound I-163] | 4.30 to 5.00 | > 5.00 | > 5.00 | > 5.00 |  |  |  |  |

Results, then the compound that gave them:

| pIC50 (KAT-8) | pIC50 (KAT-7) | pIC50 (KAT-5) | pIC50 (KAT-6A) | pIC50 (KAT-8; Table 6, comparative compounds) | pIC50 (KAT-7; Table 6, comparative compounds) | pIC50 (KAT-5; Table 6, comparative compounds) | pIC50 (KAT-6A; Table 6, comparative compounds) | SMILES |
| --- | --- | --- | --- | --- | --- | --- | --- | --- |
| 4.30 to 5.00 | > 5.00 | > 5.00 | > 5.00 |  |  |  |  | O=C(NNS(=O)(=O)CC1CCCCC1)c1cc(-c2cn(Cc3ncco3)cn2)cc(Cl)c1F [Compound I-219] |
| 4.30 to 5.00 | > 5.00 | > 5.00 | > 5.00 |  |  |  |  | CN(C(=O)C1CCC1)C1CCC(CS(=O)(=O)NNC(=O)c2cc(-c3cn(C)cn3)cc(Cl)c2F)CC1 (centres unmarked) [Compound I-317] |
| 4.30 to 5.00 | > 5.00 | > 5.00 | > 5.00 |  |  |  |  | Cn1cnc(-c2cc(Cl)c(F)c(C(=O)NNS(=O)(=O)CC3CCC(NC(=O)OC(C)(C)C)C3)c2)c1 (centres unmarked) [Compound I-285] |
| 4.30 to 5.00 | > 5.00 | 4.30 to 5.00 | 4.30 to 5.00 |  |  |  |  | CC(=O)N1C[C@H](CS(=O)(=O)NNC(=O)c2cc(-c3cn(C)cn3)cc(Cl)c2F)[C@@H](C)C1 [Compound I-283] |
| 4.30 to 5.00 | > 5.00 | > 5.00 | > 5.00 |  |  |  |  | CC(C)C(=O)N[C@H]1CC[C@H](CS(=O)(=O)NNC(=O)c2cc(-c3cn(C)cn3)cc(Cl)c2F)CC1 [Compound I-201] |
| 4.30 to 5.00 | > 5.00 | 4.30 to 5.00 | 4.30 to 5.00 |  |  |  |  | Cn1cnc(-c2ccc(F)c(C(=O)NNS(=O)(=O)C[C@H]3CCC[C@H](O)C3)c2)c1 [Compound I-305] |
| 4.30 to 5.00 | > 5.00 | > 5.00 | > 5.00 |  |  |  |  | Cn1cnc(-c2cc(Cl)c(F)c(C(=O)NNS(=O)(=O)C[C@H]3CC[C@H](NC(=O)Cc4ccccc4)CC3)c2)c1 [Compound I-229] |
| 4.30 to 5.00 | > 5.00 | > 5.00 | > 5.00 |  |  |  |  | Cn1cnc(-c2cc(Cl)c(F)c(C(=O)NNS(=O)(=O)c3ccccc3Cl)c2)c1 [Compound I-309] |
| 4.30 to 5.00 | > 5.00 | > 5.00 | > 5.00 |  |  |  |  | Cn1cnc(-c2cc(Cl)c(F)c(C(=O)NNS(=O)(=O)C[C@H]3CC[C@H](NC(=O)Cc4ccccn4)CC3)c2)c1 [Compound I-249] |
| 4.30 to 5.00 | > 5.00 | > 5.00 | 4.30 to 5.00 |  |  |  |  | CC1CCN(C(=O)OC(C)(C)C)CC1CS(=O)(=O)NNC(=O)c1cc(-c2cn(C)cn2)cc(Cl)c1F (centres unmarked) [Compound I-303] |
| < 4.00 | > 5.00 | > 5.00 | > 5.00 |  |  |  |  | Cn1cnc(-c2cc(Cl)c(F)c(C(=O)NNS(=O)(=O)C[C@@H]3CCCO3)c2)c1 [Compound I-389] |
| 4.30 to 5.00 | > 5.00 | 4.30 to 5.00 | 4.30 to 5.00 |  |  |  |  | Cn1cnc(-c2cc(Cl)c(F)c(C(=O)NNS(=O)(=O)C[C@H]3CCC[C@H](N)C3)c2)c1 [Compound I-349] |
| 4.30 to 5.00 | > 5.00 | > 5.00 | > 5.00 |  |  |  |  | Cn1cnc(-c2cc(Cl)c(F)c(C(=O)NNS(=O)(=O)CC3CCC(NC(N)=O)C3)c2)c1 (centres unmarked) [Compound I-340] |
| 4.30 to 5.00 | > 5.00 | > 5.00 | > 5.00 |  |  |  |  | COCCOc1cccc(S(=O)(=O)NNC(=O)c2cc(-c3cn(C)cn3)cc(Cl)c2F)c1 [Compound I-368] |
| 4.30 to 5.00 | > 5.00 | > 5.00 | 4.30 to 5.00 |  |  |  |  | COCc1nc(-c2cc(Cl)c(F)c(C(=O)NNS(=O)(=O)CC3CCCCC3)c2)cn1C [Compound I-226] |
| 4.30 to 5.00 | > 5.00 | > 5.00 | > 5.00 |  |  |  |  | COc1ccc(CN(C)C(=O)NC2CCC(CS(=O)(=O)NNC(=O)c3cc(-c4cn(C)cn4)cc(Cl)c3F)C2)cc1 (centres unmarked) [Compound I-359] |
| 4.30 to 5.00 | > 5.00 | 4.30 to 5.00 | > 5.00 |  |  |  |  | Cn1cnc(-c2cc(Cl)c(F)c(C(=O)NNS(=O)(=O)C[C@H]3C[C@H](NC(N)=O)C3)c2)c1 [Compound I-207] |
| 4.30 to 5.00 | > 5.00 | > 5.00 | > 5.00 |  |  |  |  | Cn1cnc(-c2cc(Cl)c(F)c(C(=O)NNS(=O)(=O)c3cccc(Cl)c3)c2)c1 [Compound I-324] |
| 4.30 to 5.00 | > 5.00 | > 5.00 | > 5.00 |  |  |  |  | CO[C@H]1CC[C@@H](CS(=O)(=O)NNC(=O)c2cc(-c3cn(C)cn3)cc(Cl)c2F)CC1 [Compound I-353] |
